This is an account of results in patent publication US9604987B2, “Synthesis of autophagy inducing compound and the uses thereof” (Hong Kong Baptist University, priority 2012, dated 2017).

Structures are written as SMILES. Like-named read-outs stand apart in the source and are kept apart here.

A word on the AUC: it is concentration integrated over time. By MRT is commonly meant a mean duration of stay, worked out from the concentration-time curve.

Data set [1] can be described thus: Pharmacokinetic study of Cory B, CB6 and CB8 in rats (plasma, LC/MS/MS, NCA). On the set-up: species or system Male Sprague-Dawley (SD) rats. The following applies: rat, in vivo, 1 mg/kg; for AUC / Cmax / MRT / half-life: male, Sprague-Dawley. The procedure:
Male Sprague-Dawley (SD) rats (weighting ˜200 g) used in the experiment are provided by Laboratory Animal Services Center of The Chinese University of Hong Kong (Hong Kong SAR, People's Republic of China). Cory B (n=3), CB6 (n=6) and CB8 (n=6). For the jugular vein cannulation surgery, the rats are anesthetized (intramuscular injection of a mixture of 80 mg/kg ketamine and 8 mg/kg xylazine) followed by inserting a polyethylene tube (0.5 mm ID, 1 mm OD, Portex Ltd., England) into the right jugular vein. The cannulated rats are allowed to recover overnight while fasting with free access to water. For intravenous (IV) administrations, Cory B, CB6 or CB8 (200 μg/mL, dissolved in saline containing 9.2% PEG400+0.5% DMSO, w/w) is given through the jugular vein catheter at 1 mg/kg. For intranasal (IN) administration, 10 μL of Cory B, CB6 or CB8 (10 mg/mL, dissolved with 40% PEG400, 10% DMSO in H2O, w/w) is given to each nostril of rats. At pre-determined time points post-dosing (5, 10, 20, 30, 60, 120, 240 and 360 min for IV and IN administration groups), approximately 200 μL blood is collected into a heparinized centrifuge tube containing 5 μM EDTA followed by centrifugation at 3000 rpm for 5 min to obtain the plasma. To 100 μL rat plasma sample, an aliquot of 100 μL internal standard (IS) and 100 μL of acetonitrile are added. The mixture is mixed for 1 min by vortex and then centrifuged for 10 min at 13,200 rpm. 200 μL of supernatant is transferred into centrifuge tubes and mixed with 200 μL of H2O containing 4% formic acid (FA). After another round of vortex and centrifugation, 10 μL of the supernatant is subjected to LC/MS/MS for quantification of Cory B, CB6 or CB8 with an established LC/MS/MS method. Pharmacokinetic parameters from non-compartmental analysis (NCA) are calculated using WinNonLin. The pharmacokinetic parameters and profiles of each analytes are shown as below.

The test system of data set [2] is N2a GFP-LC3 cells. In words: GFP-LC3 puncta formation in N2a cells constantly expressing GFP-LC3 (confocal). It is filed as cell-based, mouse. The following applies: for pro-autophagic activity (GFP-LC3 puncta): 50 μM, 12 hours. The procedure:
Cell imaging and puncta counting. Cells were fixed in 3.7% paraformaldehyde (158127, Sigma) for 10 minutes and mounted with FluorSave reagent. Cell images were recorded using a fluorescence microscope or confocal microscope. GFP or RFP Puncta number were counted in cells as described previously. Briefly, the GFP-LC3 or RFP-LC3 puncta in each cell were manually counted, and at least 50 cells were randomly selected for counting in each group. The data presented were from one representative experiment of at least 3 independent experiments.
Further, a neuroblastoma cell line N2a constantly expressing GFP-LC3 (a standard autophagy marker protein) is established. The formation of GFP-LC3 puncta under Cory B treatment is observed under a confocal microscope. Data is presented as the mean±SEM of one representative experiment from three independent experiments. (*p<0.05, ***p<0.001, one-way ANOVA for multiple comparison and Tukey's test as post hoc test).
To confirm that enhancement of autophagy markers by Cory B is due to induction of autophagy rather than blockage of autophagosome maturation, N2a cells are treated with 25 μM Cory B or 30 μM lysosome inhibitor CQ together with Cory B for 12 hours. Cell lysates are subject to western blot analysis. Data are presented as the mean±SEM from 3 independent experiments (***p<0.001, one-way ANOVA for multiple comparison and Tukey's test as post hoc test). Both LC3-II levels and the number of GFP-LC3 puncta in the Cory B and CQ co-treatment group are much higher than in the CQ-alone treatment group (FIG. 2A-D). Meanwhile, Cory B induces GFP-LC3 puncta formation is abolished by treatment of 5 mM autophagy inhibitor 3-MA for 24 hours (FIG. 2C, D). Cells were fixed in 4% paraformaldehyde and analyzed under a confocal microscope. Data are presented as the mean±SEM of one representative experiment from three independent experiments. (***p<0.001, one-way ANOVA for multiple comparison and Tukey's test as post hoc test). […] Thus, Cory B is indeed an autophagy inducer in neuronal cells.
In order to observe the pro-autophagic activity of CB6 and CB8 intuitively, N2a cells constantly expressing GFP-LC3 are treated with 50 μM Cory B, CB6 and CB8 for 12 hours respectively. The cells are than fixed with 4% paraformaldehyde (Sigma, 158127) for 10 minutes, and then mounted with VECTASHIELD hardset anti-fade mounting medium. The mounted samples are then subjected to confocal microscopy analysis.
After designated treatments, N2a cells constantly expressing GFP-LC3 were fixed with 4% paraformaldehyde (Sigma, 158127) for 10 min, and then mounted with VECTASHIELD hardset antifade mounting medium. The mounted samples were then subjected to confocal microscopy analysis.

In data set [1] (inhaled or intranasal), `CCCN1C(=O)[C@]2(CCN3C[C@@H](CC)[C@@H](/C(=C\OC)C(=O)OC)C[C@H]32)c2ccccc21` [CB6] had an AUC of 200 ng·h/mL, a Cmax of 244 ± 33 ng/mL, an MRT of 1.83 h and a half-life of 1.93 ± 0.133 h. Also, the “Tmax (time to reach Cmax)” value in data set [1] (inhaled or intranasal) is 5 ± 0 min. In data set [1] (iv), this compound showed an AUC of 248 ng·h/mL, a Cmax of 520 ± 177 ng/mL, an MRT of 1.58 h and a half-life of 2 ± 0.25 h. Moreover, the “Cmax and Area Under Curve (AUC) in comparison Cory B” value in data set [1] (iv) was “greater”. Also, in data set [2], the “pro-autophagic activity (GFP-LC3 puncta)” value is on record as “confirmed to be autophagy inducers”.
In data set [1] (inhaled or intranasal), `C=CCN1C(=O)[C@]2(CCN3C[C@@H](CC)[C@@H](/C(=C\OC)C(=O)OC)C[C@H]32)c2ccccc21` [CB8] had an AUC of 124 ng·h/mL, a Cmax of 129 ± 61 ng/mL, a mean residence time (MRT) of 1.95 h and a half-life of 1.65 ± 0.217 h. Moreover, in data set [1] (inhaled or intranasal), the “Tmax (time to reach Cmax)” value came out at 5 ± 0 min. In data set [1] (iv), this compound had an AUC of 102 ng·h/mL, a Cmax of 143 ± 42 ng/mL, an MRT of 1.65 h and a half-life of 1.87 ± 0.433 h. Further, the “Cmax and Area Under Curve (AUC) in comparison Cory B” value in data set [1] (iv) is reported as “greater”. Besides, the “pro-autophagic activity (GFP-LC3 puncta)” value in data set [2] is given as “confirmed to be autophagy inducers”.
For the compound `CC[C@@H]1CN2CC[C@]3(C(=O)Nc4ccccc43)C2C[C@@H]1C(=COC)C(=O)OC` (some centres unmarked) [Cory B, Corynoxine B], the AUC in data set [1] (inhaled or intranasal, rats, intranasal, read-out: AUC (area under the curve) (converted)) is 92.6 ng·h/mL; in data set [1] (rats, intravenous, read-out: AUC (area under the curve) (converted)), 63.6 ng·h/mL. For the same compound, the Cmax in data set [1] (inhaled or intranasal, rats, intranasal, read-out: Cmax (maximum plasma concentration)) stood at 145 ± 62 ng/mL; in data set [1] (rats, intravenous, read-out: Cmax (maximum plasma concentration)), 66 ± 8 ng/mL. In addition, the MRT in data set [1] (inhaled or intranasal, rats, intranasal, read-out: MRT (mean residence time) (converted)) was 2.22 h; in data set [1] (rats, intravenous, read-out: MRT (mean residence time) (converted)) it was 2.3 h. The half-life was 1.93 ± 0.233 h in data set [1] (inhaled or intranasal, rats, intranasal, read-out: t1/2 (plasma half-life)) and 2.13 ± 0.367 h in data set [1] (rats, intravenous, read-out: t1/2 (plasma half-life)). Besides, the “GFP-LC3 puncta formation in presence of autophagy inhibitor 3-MA” value in data set [2] (5 mM 3-MA, 24 hours) is “abolished”. The GFP-LC3 puncta formation entry in data set [2] (N2a GFP-LC3 cells, Cory B treatment) was “induces massive GFP-LC3 puncta formation”.
